Source: US10077261B2, “Imidazolin-5-one derivative useful as FASN inhibitors for the treatment of cancer” (Janssen Pharmaceutica NV, priority 2012, dated 2018)

Tests used:
A2780 ovarian cells [1] = assay: A2780 ovarian cell proliferation assay in lipid reduced medium, with palmitate (MTT); type: cell-based; conditions: Homo sapiens, A2780, 96 h; read-out: pIC50 A2780 Ovarian Cell, With Palmitate (converted)
Procedure, shortened: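 In this palmitate-supplemented format, compound dilutions (30 μM down to 0.01 μM) are added to cells in lipid-reduced serum with 25 μM palmitate, 0.2% fatty-acid-free BSA and 0.25% ethanol. After four days (96 h) MTT absorbance at 544 nm is recorded and fitted by minimum sum of squares.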

[2] = tested on: PC-3M-Luc-C6 prostate cells; assay: In vitro PC-3M-Luc-C6 prostate cell proliferation assay in lipid reduced medium; type: cell-based; conditions: 96 h, read-out: pIC50 PC-3M-Luc-C6 prostate cell (converted)
A2780 ovarian cells [3] = assay: A2780 ovarian cell proliferation assay in lipid reduced medium, without palmitate (MTT); type: cell-based; conditions: Homo sapiens, A2780, 96 h; read-out: pIC50 A2780 Ovarian Cell, Without Palmitate (converted)
[4] = biological target: T1, hFASN enzyme (full length) (Homo sapiens, UniProt P49327); assay: Fatty Acid Synthase (FASN) inhibition scintillation proximity assay; type: biochemical; conditions: for inhibition at 10 µM: read-out: Human FASN % inhibition @ 10 μM, 10 μM test compound; for IC50: read-out: Human FASN pIC50 (converted)
T1 construct: 10 μL hFASN enzyme (full length, 300 ng, purified in house); made in house
Procedure, shortened: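 Proximity read-out: hydrophobic ^3H-palmitate formed from ^3H-acetyl-CoA and malonyl-CoA binds streptavidin imaging beads, imaged at 610±20 nm at least 24 h after stopping. Enzyme was in-house purified full-length hFASN, 300 ng, in pH 7.5 phosphate/DTT buffer; compound series 30 μM down to 0.01 μM, normalized to controls, 4-parameter fit.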

[5] = tested on: LNCaP-Vancouver prostate cells; assay: In vitro LNCaP Vancouver prostate cell proliferation assay in lipid reduced medium; type: cell-based; conditions: read-out: pIC50 LNCaP_Vancouver prostate cell (converted)
[6] = biological target: Fatty Acid Synthase Keto-reductase Domain (FASN KR) (Homo sapiens, UniProt P49327); assay: Fatty Acid Synthase keto-reductase domain (FASN KR) inhibition, NADPH oxidation at 340 nm
Sequence of Fatty Acid Synthase Keto-reductase Domain (FASN KR) (P49327 whole entry, the tested form may be a part): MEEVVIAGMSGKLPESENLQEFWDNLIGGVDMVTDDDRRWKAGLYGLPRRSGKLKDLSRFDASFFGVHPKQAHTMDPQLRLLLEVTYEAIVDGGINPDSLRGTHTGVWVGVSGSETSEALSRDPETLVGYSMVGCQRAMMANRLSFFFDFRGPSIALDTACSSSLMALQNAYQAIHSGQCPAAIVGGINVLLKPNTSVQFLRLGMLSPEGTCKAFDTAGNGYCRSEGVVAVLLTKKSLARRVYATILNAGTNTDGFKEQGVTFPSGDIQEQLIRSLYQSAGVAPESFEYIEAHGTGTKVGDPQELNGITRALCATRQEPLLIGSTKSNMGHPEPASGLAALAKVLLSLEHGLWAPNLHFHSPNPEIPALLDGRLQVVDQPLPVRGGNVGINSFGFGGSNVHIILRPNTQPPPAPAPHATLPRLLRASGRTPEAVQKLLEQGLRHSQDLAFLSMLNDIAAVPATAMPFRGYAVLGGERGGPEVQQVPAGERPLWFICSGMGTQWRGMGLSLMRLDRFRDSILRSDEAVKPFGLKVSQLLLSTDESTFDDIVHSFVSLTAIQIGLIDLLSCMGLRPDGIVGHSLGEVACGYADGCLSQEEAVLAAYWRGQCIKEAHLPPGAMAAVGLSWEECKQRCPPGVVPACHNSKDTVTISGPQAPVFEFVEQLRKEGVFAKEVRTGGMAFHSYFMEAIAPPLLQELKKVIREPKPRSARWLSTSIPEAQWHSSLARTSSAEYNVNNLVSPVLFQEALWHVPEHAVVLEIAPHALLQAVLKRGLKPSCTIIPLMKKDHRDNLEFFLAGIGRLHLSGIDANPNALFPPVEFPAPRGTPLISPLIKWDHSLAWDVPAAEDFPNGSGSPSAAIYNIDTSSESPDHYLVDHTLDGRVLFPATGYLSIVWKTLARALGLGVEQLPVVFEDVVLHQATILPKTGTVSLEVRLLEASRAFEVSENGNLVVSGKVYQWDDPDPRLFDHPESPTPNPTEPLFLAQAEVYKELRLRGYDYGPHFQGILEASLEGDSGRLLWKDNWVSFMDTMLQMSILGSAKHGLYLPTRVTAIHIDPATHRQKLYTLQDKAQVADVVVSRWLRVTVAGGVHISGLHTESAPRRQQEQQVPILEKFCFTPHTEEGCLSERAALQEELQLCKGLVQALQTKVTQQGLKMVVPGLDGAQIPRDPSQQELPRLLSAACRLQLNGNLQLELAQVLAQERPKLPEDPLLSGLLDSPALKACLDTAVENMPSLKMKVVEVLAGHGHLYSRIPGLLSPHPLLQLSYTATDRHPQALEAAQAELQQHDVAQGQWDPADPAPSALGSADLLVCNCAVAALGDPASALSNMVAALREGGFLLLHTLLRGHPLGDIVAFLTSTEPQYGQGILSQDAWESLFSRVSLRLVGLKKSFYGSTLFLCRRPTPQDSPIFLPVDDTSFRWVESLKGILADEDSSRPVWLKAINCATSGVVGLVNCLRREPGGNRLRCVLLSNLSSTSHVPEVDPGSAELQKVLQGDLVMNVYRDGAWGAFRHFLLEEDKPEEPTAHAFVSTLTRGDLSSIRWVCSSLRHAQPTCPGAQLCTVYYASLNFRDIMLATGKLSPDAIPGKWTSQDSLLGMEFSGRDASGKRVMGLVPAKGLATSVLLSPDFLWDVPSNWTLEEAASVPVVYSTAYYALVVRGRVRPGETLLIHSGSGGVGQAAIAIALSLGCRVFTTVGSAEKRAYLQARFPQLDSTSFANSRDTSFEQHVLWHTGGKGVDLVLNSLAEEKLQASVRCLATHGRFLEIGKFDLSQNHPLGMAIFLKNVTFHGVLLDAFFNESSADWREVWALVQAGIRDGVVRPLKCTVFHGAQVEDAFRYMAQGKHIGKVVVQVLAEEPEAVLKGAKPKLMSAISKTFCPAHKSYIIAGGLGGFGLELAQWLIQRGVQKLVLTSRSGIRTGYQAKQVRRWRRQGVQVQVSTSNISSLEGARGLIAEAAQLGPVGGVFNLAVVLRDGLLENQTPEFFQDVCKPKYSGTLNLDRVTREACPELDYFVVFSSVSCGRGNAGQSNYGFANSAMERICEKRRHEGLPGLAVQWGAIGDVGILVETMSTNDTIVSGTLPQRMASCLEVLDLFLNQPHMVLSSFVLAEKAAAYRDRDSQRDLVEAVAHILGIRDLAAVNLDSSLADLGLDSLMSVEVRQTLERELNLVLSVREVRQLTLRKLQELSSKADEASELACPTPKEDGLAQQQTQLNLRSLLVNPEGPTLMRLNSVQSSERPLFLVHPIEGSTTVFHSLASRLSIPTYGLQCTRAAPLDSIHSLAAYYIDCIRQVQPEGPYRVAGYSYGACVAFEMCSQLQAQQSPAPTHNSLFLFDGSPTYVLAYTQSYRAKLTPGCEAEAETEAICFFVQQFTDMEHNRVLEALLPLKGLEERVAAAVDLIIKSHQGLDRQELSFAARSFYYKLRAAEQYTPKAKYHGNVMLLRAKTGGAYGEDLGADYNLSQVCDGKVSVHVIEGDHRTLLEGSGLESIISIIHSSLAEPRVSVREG
Experimental: After 20 minutes incubation at room temperature the plate was measured again (T2).
The decrease in absorbance was calculated as (Absorbance before incubation T1)−(Absorbance following incubation T2).
A plot of Controlmin versus test compound concentration was fitted to a 4-parameter logistic curve using a non-linear least squares regression method.

T1 sequence (P49327 whole entry): as the sequence (P49327 whole entry, the tested form may be a part) above

Structure (SMILES)	IC50 (A2780 ovarian cells [1]) [nM]	IC50 [2] [nM]	IC50 (A2780 ovarian cells [3]) [nM]	inhibition at 10 µM [4] [%]	IC50 [4] [nM]	IC50 [5] [nM]	IC50 [6] [nM]	Human FASN pIC50 ([4]; hFASN enzyme full length, scintillation proximity assay, "~" = standard error of pIC50 larger than 0.5)
O=C(C1CC1)N1CC[C@@H](CN2C(=O)C3(CC3)N=C2c2ccc(-c3ccc4occc4c3)nc2)C1 [compound 420, 5-[6-(1-Benzofuran-5-yl)pyridin-3-yl]-6-{[(3R)-1-(cyclopropylcarbonyl)pyrrolidin-3-yl]methyl}-4,6-diazaspiro[2.4]hept-4-en-7-one]	> 10000	1660	~2090	92	490	6460	977	–
Cn1ncc2cc(-c3ccc(C4=NC5(CC5)C(=O)N4C[C@@H]4CCN(C(=O)C5CC5)C4)cn3)ccc21 [compound 421, 6-{[(3R)-1-(Cyclopropylcarbonyl)pyrrolidin-3-yl]methyl}-5-[6-(1-methyl-1H-indazol-5-yl)pyridin-3-yl]-4,6-diazaspiro[2.4]hept-4-en-7-one]	> 10000	1050	1150	94	–	1290	1780	6.34
O=C(C1CC1)N1CC[C@@H](CN2C(=O)C3(CC3)N=C2c2ccc(-c3ccc4sccc4c3)s2)C1 [compound 425, 5-[5-(1-Benzothiophen-5-yl)thiophen-2-yl]-6-{[(3R)-1-(cyclopropylcarbonyl)pyrrolidin-3-yl]methyl}-4,6-diazaspiro[2.4]hept-4-en-7-one]	> 10000	2190	~6920	93	275	3160	646	–
O=C(C1CC1)N1CC[C@@H](CN2C(=O)C3(CC3)N=C2c2ccc(-c3ccc4c(c3)N=CC4)s2)C1 [compound 426, 6-{[(3R)-1-(Cyclopropylcarbonyl)pyrrolidin-3-yl]methyl}-5-[5-(3H-indol-6-yl)thiophen-2-yl]-4,6-diazaspiro[2.4]hept-4-en-7-one]	> 10000	1740	2340	94	347	2340	708	–
O=C(C1CC1)N1CC[C@@H](CN2C(=O)C3(CC3)N=C2c2ccc(-c3cccc4[nH]ncc34)s2)C1 [compound 427, 6-{[(3R)-1-(Cyclopropylcarbonyl)pyrrolidin-3-yl]methyl}-5-[5-(1H-indazol-4-yl)thiophen-2-yl]-4,6-diazaspiro[2.4]hept-4-en-7-one]	> 10000	851	832	91	417	2630	1120	–
O=C(C1CC1)N1CC[C@@H](CN2C(=O)C3(CC3)N=C2c2ccc(-c3ccc4c(c3)COCC4)cc2)C1 [compound 453, 6-{[(3R)-1-(Cyclopropylcarbonyl)pyrrolidin-3-yl]methyl}-5-[4-(3,4-dihydro-1H-2-benzopyran-7-yl)phenyl]-4,6-diazaspiro[2.4]hept-4-en-7-one]	> 10000	1620	2140	94	245	2950	1120	–

Stronger by IC50 [6], values ahead:

IC50 (A2780 ovarian cells [1]) [nM]	IC50 [2] [nM]	IC50 (A2780 ovarian cells [3]) [nM]	inhibition at 10 µM [4] [%]	IC50 [4] [nM]	IC50 [5] [nM]	IC50 [6] [nM]	Human FASN pIC50 ([4]; hFASN enzyme full length, scintillation proximity assay, "~" = standard error of pIC50 larger than 0.5)	Structure (SMILES)
> 10000	794	~1100	101	138	2820	589	–	O=C(C1CC1)N1CC[C@@H](CN2C(=O)C3(CC3)N=C2c2ccc(-c3ccc4cc[nH]c4c3)cn2)C1 [compound 428, 6-{[(3R)-1-(Cyclopropylcarbonyl)pyrrolidin-3-yl]methyl}-5-[5-(1H-indol-6-yl)pyridin-2-yl]-4,6-diazaspiro[2.4]hept-4-en-7-one]
> 10000	417	~209	95	251	1820	562	–	Cc1cc(C2=NC3(CC3)C(=O)N2C[C@@H]2CCN(C(=O)C3CC3)C2)ccc1-c1ccc2[nH]ncc2c1 [compound 444, 6-{[(3R)-1-(Cyclopropylcarbonyl)pyrrolidin-3-yl]methyl}-5-[4-(1H-indazol-5-yl)-3-methylphenyl]-4,6-diazaspiro[2.4]hept-4-en-7-one]
> 10000	1350	1290	90	316	2570	550	–	O=C(C1CC1)N1CC[C@@H](CN2C(=O)C3(CC3)N=C2c2ccc(-c3ccc4[nH]ccc4c3)s2)C1 [compound 423, 6-{[(3R)-1-(Cyclopropylcarbonyl)pyrrolidin-3-yl]methyl}-5-[5-(1H-indol-5-yl)thiophen-2-yl]-4,6-diazaspiro[2.4]hept-4-en-7-one]
> 10000	550	631	97	229	2040	525	–	Nc1cc(-c2ccc(C3=NC4(CC4)C(=O)N3C[C@@H]3CCN(C(=O)C4CC4)C3)cc2)ccn1 [compound 452, 5-[4-(2-Aminppyridin-4-yl)phenyl]-6-{[(3R)-1-(cyclopropylcarbonyl)pyrrolidin-3-yl]methyl}-4,6-diazaspiro[2.4]hept-4-en-7-one]
> 6170	871	1510	98	141	2040	447	–	Cc1cc2cc(-c3ccc(C4=NC5(CC5)C(=O)N4CC4CN(C(=O)C5CC5)C4)cc3)ccc2s1 [compound 432, 6-{[1-(Cyclopropylcarbonyl)azetidin-3-yl]methyl}-5-[4-(2-methyl-1-benzothiophen-5-yl)phenyl]-4,6-diazaspiro[2.4]hept-4-en-7-one]
> 10000	1580	~2140	103	151	~2510	302	–	Cc1sc2ccc(-c3ccc(C4=NC5(CC5)C(=O)N4CC4CN(C(=O)C5CC5)C4)cc3)cc2c1C [compound 418, 6-{[1-(Cyclopropylcarbonyl)azetidin-3-yl]methyl}-5-[4-(2,3-dimethyl-1-benzothiophen-5-yl)phenyl]-4,6-diazaspiro[2.4]hept-4-en-7-one]
> 10000	234	95.5	97	195	1150	214	–	O=C(C1CC1)N1CC(CN2C(=O)C3(CC3)N=C2c2ccc(-c3ccc4[nH]ccc4c3)c(F)c2)C1 [compound 440, 6-{[1-(Cyclopropylcarbonyl)azetidin-3-yl]methyl}-5-[3-fluoro-4-(1H-indol-5-yl)phenyl]-4,6-diazaspiro[2.4]hept-4-en-7-one]
> 10000	234	67.6	100	182	1170	209	–	Cc1cc(C2=NC3(CC3)C(=O)N2C[C@@H]2CCN(C(=O)C3CC3)C2)ccc1-c1cccc2[nH]ncc12 [compound 445, 6-{[(3R)-1-(Cyclopropylcarbonyl)pyrrolidin-3-yl]methyl}-5-[4-(1H-indazol-4-yl)-3-methylphenyl]-4,6-diazaspiro[2.4]hept-4-en-7-one]
